Results from ChEMBL document CHEMBL3046451, “Design, synthesis, characterization, and in vitro antimicrobial action of novel trisubstituted s-triazines” (2012).
In brackets after ≈: the same amount, converted by molar mass.

What was measured:
Candida albicans [1] = assay: Antifungal activity against Candida albicans MTCC 183 after 48 hr by agar streak dilution method; format: functional; settings: MTCC 183, 48 h
Aspergillus niger [2] = assay: Antifungal activity against Aspergillus niger MTCC 282 after 48 hr by agar streak dilution method; format: functional; settings: MTCC 282, 48 h
Candida albicans [3] = assay: Antifungal activity against Candida albicans MTCC 183 after 24 hr by paper disk diffusion method; format: functional
Aspergillus niger [4] = assay: Antifungal activity against Aspergillus niger MTCC 282 after 24 hr by paper disk diffusion method; format: functional
Shigella flexneri [5] = assay: Antibacterial activity against Shigella flexneri MTCC 1457 after 24 hr by agar streak dilution method; format: functional; settings: MTCC 1457, 24 h
Proteus vulgaris [6] = assay: Antibacterial activity against Proteus vulgaris MTCC 1771 after 24 hr by agar streak dilution method; format: functional; settings: MTCC 1771, 24 h
Salmonella typhi [7] = assay: Antibacterial activity against Salmonella enterica subsp. enterica serovar Typhi MTCC 733 after 24 hr by agar streak dilution method; format: functional; settings: MTCC 733, 24 h
Klebsiella pneumoniae [8] = assay: Antibacterial activity against Klebsiella pneumoniae MTCC 109 after 24 hr by agar streak dilution method; format: functional; settings: MTCC 109, 24 h
Pseudomonas aeruginosa [9] = assay: Antibacterial activity against Pseudomonas aeruginosa MTCC 741 after 24 hr by agar streak dilution method; format: functional; settings: MTCC 741, 24 h
Escherichia coli [10] = assay: Antibacterial activity against Escherichia coli MTCC 739 after 24 hr by agar streak dilution method; format: functional; settings: MTCC 739, 24 h
Bacillus cereus [11] = assay: Antibacterial activity against Bacillus cereus MTCC 619 after 24 hr by agar streak dilution method; format: functional; settings: MTCC 619, 24 h
Staphylococcus aureus [12] = assay: Antibacterial activity against Staphylococcus aureus MTCC 96 after 24 hr by agar streak dilution method; format: functional; settings: MTCC 96, 24 h
Shigella flexneri [13] = assay: Antibacterial activity against Shigella flexneri MTCC 1457 after 24 hr by paper disk diffusion method; format: functional
Proteus vulgaris [14] = assay: Antibacterial activity against Proteus vulgaris MTCC 1771 after 24 hr by paper disk diffusion method; format: functional
Salmonella typhi [15] = assay: Antibacterial activity against Salmonella enterica subsp. enterica serovar Typhi MTCC 733 after 24 hr by paper disk diffusion method; format: functional
Klebsiella pneumoniae [16] = assay: Antibacterial activity against Klebsiella pneumoniae MTCC 109 after 24 hr by paper disk diffusion method; format: functional
Pseudomonas aeruginosa [17] = assay: Antibacterial activity against Pseudomonas aeruginosa MTCC 741 after 24 hr by paper disk diffusion method; format: functional
Escherichia coli [18] = assay: Antibacterial activity against Escherichia coli MTCC 739 after 24 hr by paper disk diffusion method; format: functional
Bacillus cereus [19] = assay: Antibacterial activity against Bacillus cereus MTCC 619 after 24 hr by paper disk diffusion method; format: functional
Staphylococcus aureus [20] = assay: Antibacterial activity against Staphylococcus aureus MTCC 96 after 24 hr by paper disk diffusion method; format: functional
Shigella flexneri [21] = assay: Antibacterial activity against Shigella flexneri MTCC 1457 at 50 ug/disc after 24 hr by paper disk diffusion method; format: functional; settings: MTCC 1457, 24 h, read-out: IZ
Proteus vulgaris [22] = assay: Antibacterial activity against Proteus vulgaris MTCC 1771 at 50 ug/disk after 24 hr by paper disk diffusion method; format: functional; settings: MTCC 1771, 24 h, read-out: IZ
Salmonella typhi [23] = assay: Antibacterial activity against Salmonella enterica subsp. enterica serovar Typhi MTCC 733 at 50 ug/disk after 24 hr by paper disk diffusion method; format: functional; settings: MTCC 733, 24 h, read-out: IZ
Bacillus cereus [24] = assay: Antibacterial activity against Bacillus cereus MTCC 619 at 50 ug/disk after 24 hr by paper disk diffusion method; format: functional; settings: MTCC 619, 24 h, read-out: IZ
Staphylococcus aureus [25] = assay: Antibacterial activity against Staphylococcus aureus MTCC 96 at 50 ug/disc after 24 hr by paper disk diffusion method; settings: MTCC 96, 24 h, read-out: IZ
Klebsiella pneumoniae [26] = assay: microbe, parasite or virus in culture; settings: MTCC 109, 24 h, read-out: IZ
Description: Antibacterial activity against Klebsiella pneumoniae MTCC 109 at 50 ug/disk after 24 hr by paper disk diffusion method

Pseudomonas aeruginosa [27] = assay: microbe, parasite or virus in culture; settings: MTCC 741, 24 h, read-out: IZ
Description: Antibacterial activity against Pseudomonas aeruginosa MTCC 741 at 50 ug/disk after 24 hr by paper disk diffusion method

Escherichia coli [28] = assay: microbe, parasite or virus in culture; settings: MTCC 739, 24 h, read-out: IZ
Description: Antibacterial activity against Escherichia coli MTCC 739 at 50 ug/disk after 24 hr by paper disk diffusion method

Candida albicans [29] = assay: Antifungal activity against Candida albicans MTCC 183 at 50 ug/disk after 24 hr by paper disk diffusion method; format: functional; settings: MTCC 183, 24 h, read-out: IZ
Aspergillus niger [30] = assay: Antifungal activity against Aspergillus niger MTCC 282 at 50 ug/disk after 24 hr by paper disk diffusion method; format: functional; settings: MTCC 282, 24 h, read-out: IZ

SMILES: Cn1c(=O)cc(Oc2nc(NCc3ccccc3)nc(Nc3ccc(C#N)cc3)n2)c2ccccc21
- MIC (Candida albicans [1]): > 50 µg/mL
- MIC (Aspergillus niger [2]): > 50 µg/mL
- inhibition zone (IZ) (Candida albicans [3]): <5 mm
- inhibition zone (IZ) (Aspergillus niger [4]): <5 mm
- MIC (Shigella flexneri [5]): 50 µg/mL (≈ 105 µM)
- MIC (Proteus vulgaris [6]): 50 µg/mL (≈ 105 µM)
- MIC (Salmonella typhi [7]): 50 µg/mL (≈ 105 µM)
- MIC (Klebsiella pneumoniae [8]): 12.5 µg/mL (≈ 26.3 µM)
- MIC (Pseudomonas aeruginosa [9]): 50 µg/mL (≈ 105 µM)
- MIC (Escherichia coli [10]): 50 µg/mL (≈ 105 µM)
- MIC (Bacillus cereus [11]): 50 µg/mL (≈ 105 µM)
- MIC (Staphylococcus aureus [12]): 12.5 µg/mL (≈ 26.3 µM)
- inhibition zone (IZ) (Shigella flexneri [13]): 6 mm
- inhibition zone (IZ) (Proteus vulgaris [14]): <5 mm
- inhibition zone (IZ) (Salmonella typhi [15]): <5 mm
- inhibition zone (IZ) (Klebsiella pneumoniae [16]): 15 mm
- inhibition zone (IZ) (Pseudomonas aeruginosa [17]): 7 mm
- inhibition zone (IZ) (Escherichia coli [18]): 9 mm
- inhibition zone (IZ) (Bacillus cereus [19]): 10 mm
- inhibition zone (IZ) (Staphylococcus aureus [20]): 13 mm

SMILES: Cn1c(=O)cc(Oc2nc(NCCc3cccs3)nc(Nc3ccc(C#N)cc3)n2)c2ccccc21
- MIC (Candida albicans [1]): 25 µg/mL (≈ 50.4 µM)
- MIC (Aspergillus niger [2]): 25 µg/mL (≈ 50.4 µM)
- inhibition zone (IZ) (Candida albicans [3]): 15 mm
- inhibition zone (IZ) (Aspergillus niger [4]): 13 mm
- MIC (Shigella flexneri [5]): 25 µg/mL (≈ 50.4 µM)
- MIC (Proteus vulgaris [6]): 50 µg/mL (≈ 101 µM)
- MIC (Salmonella typhi [7]): 50 µg/mL (≈ 101 µM)
- MIC (Klebsiella pneumoniae [8]): 50 µg/mL (≈ 101 µM)
- MIC (Pseudomonas aeruginosa [9]): 50 µg/mL (≈ 101 µM)
- MIC (Escherichia coli [10]): 50 µg/mL (≈ 101 µM)
- MIC (Bacillus cereus [11]): 25 µg/mL (≈ 50.4 µM)
- MIC (Staphylococcus aureus [12]): 6.25 µg/mL (≈ 12.6 µM)
- inhibition zone (IZ) (Shigella flexneri [13]): 14 mm
- inhibition zone (IZ) (Proteus vulgaris [14]): 7 mm
- inhibition zone (IZ) (Salmonella typhi [15]): 12 mm
- inhibition zone (IZ) (Klebsiella pneumoniae [16]): 10 mm
- inhibition zone (IZ) (Pseudomonas aeruginosa [17]): 10 mm
- inhibition zone (IZ) (Escherichia coli [18]): 10 mm
- inhibition zone (IZ) (Bacillus cereus [19]): 13 mm
- inhibition zone (IZ) (Staphylococcus aureus [20]): 15 mm

SMILES: O=C(O)c1cn(C2CC2)c2cc(N3CCNCC3)c(F)cc2c1=O [CIPROFLOXACIN]
- MIC (Shigella flexneri [5]): ≤ 3 µg/mL
- MIC (Proteus vulgaris [6]): 1 µg/mL (≈ 3.02 µM)
- MIC (Salmonella typhi [7]): 1 µg/mL (≈ 3.02 µM)
- MIC (Klebsiella pneumoniae [8]): 1 µg/mL (≈ 3.02 µM)
- MIC (Pseudomonas aeruginosa [9]): 1 µg/mL (≈ 3.02 µM)
- MIC (Bacillus cereus [11]): 1 µg/mL (≈ 3.02 µM)
- MIC (Staphylococcus aureus [12]): 1 µg/mL (≈ 3.02 µM)
- zone of inhibition at 50 µg/disc (Shigella flexneri [21]): 17 mm
- zone of inhibition at 50 µg/disc (Proteus vulgaris [22]): 17 mm
- zone of inhibition at 50 µg/disc (Salmonella typhi [23]): 16 mm
- zone of inhibition at 50 µg/disc (Bacillus cereus [24]): 16 mm
- zone of inhibition at 50 µg/disc (Staphylococcus aureus [25]): 17 mm
- zone of inhibition at 50 µg/disc (Klebsiella pneumoniae [26]): 16 mm
- zone of inhibition at 50 µg/disc (Pseudomonas aeruginosa [27]): 15 mm
- zone of inhibition at 50 µg/disc (Escherichia coli [28]): 18 mm

SMILES: CC(=O)N1CCN(c2ccc(OCC3COC(Cn4ccnc4)(c4ccc(Cl)cc4Cl)O3)cc2)CC1 (centres undefined) [KETOCONAZOLE]
- MIC (Candida albicans [1]): 1 µg/mL (≈ 1.88 µM)
- MIC (Aspergillus niger [2]): ≤ 3 µg/mL
- zone of inhibition at 50 µg/disc (Candida albicans [29]): 17 mm
- zone of inhibition at 50 µg/disc (Aspergillus niger [30]): 16 mm
